Source: patent US20260116921A1, “PEPTIDE INHIBITORS OF INTERLEUKIN-23 RECEPTOR AND THEIR USE TO TREAT INFLAMMATORY DISEASES” (priority 2018, published 2026)
Numbered stars: 1 amine (or outer) side, 2 acyl side, 3 side chain; on linkers, the order of the positions; unused ones are H or OH. Bridge positions count the residues as written; N and C are the ends. Square brackets hold non-standard residues; d marks the D form. Peptide text beside a SMILES is read from it. X2 = CCCc1cccc2c(C[C@H](N[*:1])C(=O)[*:2])c[nH]c12; X1 = CCc1cccc2c(C[C@H](N[*:1])C(=O)[*:2])c[nH]c12; Trp(7-Me) = Cc1cccc2c(C[C@H](N)C(=O)O)c[nH]c12; 2Nal = N[C@@H](Cc1ccc2ccccc2c1)C(=O)O; AEF = NCCOc1ccc(C[C@H](N)C(=O)O)cc1; Cit = NC(=O)NCCC[C@H](N)C(=O)O; Pen = CC(C)(S)[C@H](N)C(=O)O; αMeK = C[C@](N)(CCCCN)C(=O)O

How the values were obtained:
in vitro [1] = settings: human, 20% fecal homogenate (supernatant), anaerobic, pH 6.8
in vitro [2] = settings: both, SD, rat, plasma (EDTA)
Protocol: Peptides of interest (20 μM) were incubated with pre-warmed rat plasma (SD rat, mixed gender pooled, EDTA, filtered through 0.22 μm, BioreclamationIVT) at 37° C. […] Quenched samples were stored at 4° C. until the end of the experiment and centrifuged at 4,000 rpm for 10 minutes. The supernatant were diluted 1:1 with deionized water and analyzed using LC-MS. Percentage remaining at each time point was calculated based on the peak area ratio (analyte over internal standard) relative to the initial level at time zero. Half-lives were calculated by fitting to a first-order exponential decay equation using GraphPad.

in vitro [3] = settings: cynomolgus monkey, 20% fecal homogenate (supernatant), anaerobic, pH 6.8
IL-23R = target: T1, IL-23R (Homo sapiens, UniProt Q5VWK5); assay: DB cells IL23R pSTAT3 cell assay (pStat3 HTRF); assay type: cell-based; settings: Table E3; DB cells, IL-23 0.5 nM, 30 minutes at 37° C.; read-out: pStat3 HTRF (IC50)
T1 sequence (Q5VWK5 24-629): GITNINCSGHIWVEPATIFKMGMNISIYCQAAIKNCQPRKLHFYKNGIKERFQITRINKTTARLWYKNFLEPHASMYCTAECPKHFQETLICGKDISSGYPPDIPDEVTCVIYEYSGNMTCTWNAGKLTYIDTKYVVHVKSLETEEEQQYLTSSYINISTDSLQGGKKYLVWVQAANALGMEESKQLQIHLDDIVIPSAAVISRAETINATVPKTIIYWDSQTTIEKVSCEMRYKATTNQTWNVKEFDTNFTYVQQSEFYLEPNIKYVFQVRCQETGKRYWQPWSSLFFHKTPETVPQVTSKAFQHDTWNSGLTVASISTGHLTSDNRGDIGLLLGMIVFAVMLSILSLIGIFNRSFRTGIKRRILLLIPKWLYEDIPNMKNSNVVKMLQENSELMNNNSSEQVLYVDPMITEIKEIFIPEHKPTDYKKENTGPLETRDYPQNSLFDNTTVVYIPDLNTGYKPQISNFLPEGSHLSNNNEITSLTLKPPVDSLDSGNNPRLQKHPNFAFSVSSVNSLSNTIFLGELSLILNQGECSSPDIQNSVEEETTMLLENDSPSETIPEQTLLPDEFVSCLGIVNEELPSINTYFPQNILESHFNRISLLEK
How it was run: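 HTRF readout of lysate pSTAT3 (Tyr705) after two-plate processing. Peptide dilution series co-incubated with IL-23 (0.5 nM final) on 5×10E5 IL-23R-expressing DB cells per well, 30 min, 37 °C.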

in vitro [4] = assay type: in vitro ADME; design: half-life: dose or concentration left out as unconfirmed; settings: simulated intestinal fluid (SIF) with pancreatin, pH 6.8, 37° C., § matrix is 100 fold dilution of standard SIF concentration, read-out: SIF t½ (converted)

Structure (SMILES) | half-life at 20 μM (in vitro [1]) | half-life at 20 μM (in vitro [2]) | half-life at 20 μM (in vitro [3]) | IC50 (IL-23R) | half-life (in vitro [4])
CC[C@H](C)[C@H](NC(=O)[C@H](CC(N)=O)NC(=O)[C@H](CCCCNC(C)=O)NC(=O)[C@](C)(CCCCN)NC(=O)[C@H](Cc1ccc2ccccc2c1)NC(=O)[C@H](Cc1ccc(OCCN)cc1)NC(=O)[C@H]1NC(=O)[C@H](CCCCNC(C)=O)NC(=O)[C@H](Cc2c[nH]c3c(C)cccc23)NC(=O)[C@H]([C@@H](C)O)NC(=O)[C@H](CC(N)=O)NC(=O)[C@@H](NC(C)=O)C(C)(C)SSC1(C)C)C(N)=O [compound 255] | > 24 h | > 24 h | 15 h | 1 to 10 nM | 19 h
CC(=O)N[C@@H]1C(=O)N[C@@H](CC(N)=O)C(=O)N[C@@H]([C@@H](C)O)C(=O)N[C@@H](Cc2c[nH]c3c(C)cccc23)C(=O)N[C@@H](CCC(N)=O)C(=O)N[C@H](C(=O)N[C@@H](Cc2ccc(OCCN)cc2)C(=O)N[C@@H](Cc2ccc3ccccc3c2)C(=O)N[C@@](C)(CCCCN)C(=O)N[C@@H](CCCNC(N)=O)C(=O)NCCC(=O)NCCC(N)=O)C(C)(C)SSC1(C)C [compound 279] | > 24 h | > 24 h | > 24 h | 1 to 10 nM | 7 h
CCCc1cccc2c(C[C@@H]3NC(=O)[C@H]([C@@H](C)O)NC(=O)[C@H](CC(N)=O)NC(=O)[C@@H](NC(C)=O)C(C)(C)SSC(C)(C)[C@@H](C(=O)N[C@@H](Cc4ccc(OCCN)cc4)C(=O)N[C@@H](Cc4ccc5ccccc5c4)C(=O)N[C@@](C)(CCCCN)C(=O)N[C@@H](CCCCNC(C)=O)C(=O)N[C@@H](CC(N)=O)C(=O)N[C@H](CC(C)C)C(N)=O)NC(=O)[C@H](CCCCNC(C)=O)NC3=O)c[nH]c12 [compound 285] (Ac-[Pen]NT[X2]K(Ac)[Pen][AEF][2Nal][αMeK]K(Ac)N[dL]-NH2; disulfide 1-6) | > 24 h | > 24 h | > 24 h | < 1 nM | 9 h
CCc1cccc2c(C[C@@H]3NC(=O)[C@H]([C@@H](C)O)NC(=O)[C@H](CC(N)=O)NC(=O)[C@@H](NC(C)=O)C(C)(C)SSC(C)(C)[C@@H](C(=O)N[C@@H](Cc4ccc(OCCN)cc4)C(=O)N[C@@H](Cc4ccc5ccccc5c4)C(=O)N[C@@](C)(CCCCN)C(=O)N[C@@H](CCCCNC(C)=O)C(=O)N[C@@H](CC(N)=O)C(=O)N[C@H](CC(C)C)C(N)=O)NC(=O)[C@H](CCCCNC(C)=O)NC3=O)c[nH]c12 [compound 284] (Ac-[Pen]NT[X1]K(Ac)[Pen][AEF][2Nal][αMeK]K(Ac)N[dL]-NH2; disulfide 1-6) | > 24 h | > 24 h | > 24 h | < 1 nM | 2 h
CC(=O)NCCCC[C@H](NC(=O)[C@](C)(CCCCN)NC(=O)[C@H](Cc1ccc2ccccc2c1)NC(=O)[C@H](Cc1ccc(OCCN)cc1)NC(=O)[C@H]1NC(=O)[C@H](CCCNC(N)=O)NC(=O)[C@H](Cc2c[nH]c3c(C)cccc23)NC(=O)[C@H]([C@@H](C)O)NC(=O)[C@H](CC(N)=O)NC(=O)[C@@H](NC(C)=O)C(C)(C)SSC1(C)C)C(=O)N[C@@H](CC(N)=O)C(=O)N[C@H](Cc1ccc(O)cc1)C(N)=O [compound 259] (Ac-[Pen]NT[Trp(7-Me)][Cit][Pen][AEF][2Nal][αMeK]K(Ac)N[dY]-NH2; disulfide 1-6) | > 24 h | > 24 h | 16 h | < 1 nM | 12 h
CC(=O)NCCCC[C@@H]1NC(=O)[C@H](Cc2c[nH]c3c(C)cccc23)NC(=O)[C@H]([C@@H](C)O)NC(=O)[C@H](CC(N)=O)NC(=O)[C@@H](NC(C)=O)C(C)(C)SSC(C)(C)[C@@H](C(=O)N[C@@H](Cc2ccc3ccccc3c2)C(=O)N[C@@H](Cc2ccc3ccccc3c2)C(=O)N[C@@](C)(CCCCN)C(=O)N[C@@H](CCCCNC(C)=O)C(=O)N[C@@H](CC(N)=O)C(=O)N[C@H](CC(C)C)C(N)=O)NC1=O [compound 289] (Ac-[Pen]NT[Trp(7-Me)]K(Ac)[Pen][2Nal][2Nal][αMeK]K(Ac)N[dL]-NH2; disulfide 1-6) | > 24 h | > 24 h | > 24 h | 1 to 10 nM | 12 h
CC(=O)NCCCC[C@@H]1NC(=O)[C@H](Cc2c[nH]c3c(C)cccc23)NC(=O)[C@H]([C@@H](C)O)NC(=O)[C@H](CC(N)=O)NC(=O)[C@@H](NC(C)=O)C(C)(C)SSC(C)(C)[C@@H](C(=O)N[C@@H](Cc2ccc(OCCN)cc2)C(=O)N[C@@H](Cc2ccc3ccccc3c2)C(=O)N[C@@](C)(CCCCN)C(=O)N[C@@H](CCCCNC(C)=O)C(=O)N[C@@H](CC(N)=O)C(=O)N2CCC[C@H]2C(N)=O)NC1=O [compound 253] | 1 h | > 24 h | 3 h | 1 to 10 nM | 11 h
CC(=O)NCCCC[C@@H]1NC(=O)[C@H](Cc2c[nH]c3c(C)cccc23)NC(=O)[C@H]([C@@H](C)O)NC(=O)[C@H](CC(N)=O)NC(=O)[C@@H](NC(C)=O)C(C)(C)SSC(C)(C)[C@@H](C(=O)N[C@@H](Cc2ccc(OCCN)cc2)C(=O)N[C@@H](Cc2ccc3ccccc3c2)C(=O)N[C@@](C)(CCCCN)C(=O)N[C@@H](CCCCNC(C)=O)C(=O)N[C@@H](CC(N)=O)C(=O)N[C@@H](CCCNC(=N)N)C(N)=O)NC1=O [compound 243] | 1 h | 21 h | – | 1 to 10 nM | < 1 h
CC(=O)NCCCC[C@@H]1NC(=O)[C@H](Cc2c[nH]c3c(C)cccc23)NC(=O)[C@H]([C@@H](C)O)NC(=O)[C@H](CC(N)=O)NC(=O)[C@@H](NC(C)=O)C(C)(C)SSC(C)(C)[C@@H](C(=O)N[C@@H](Cc2ccc(OCCN)cc2)C(=O)N[C@@H](Cc2ccc3ccccc3c2)C(=O)N[C@@](C)(CCCCN)C(=O)N[C@@H](CCCCNC(C)=O)C(=O)N[C@@H](CC(N)=O)C(=O)N[C@@H](Cc2c[nH]cn2)C(N)=O)NC1=O [compound 248] | > 24 h | > 24 h | 6 h | – | 3 h
CC(=O)NCCCC[C@@H]1NC(=O)[C@H](Cc2c[nH]c3c(C)cccc23)NC(=O)[C@H]([C@@H](C)O)NC(=O)[C@H](CC(N)=O)NC(=O)[C@@H](NC(C)=O)C(C)(C)SSC(C)(C)[C@@H](C(=O)N[C@@H](Cc2ccc(OCCN)cc2)C(=O)N[C@@H](Cc2ccc3ccccc3c2)C(=O)N[C@@](C)(CCCCN)C(=O)N[C@@H](CCCCNC(C)=O)C(=O)N[C@@H](CC(N)=O)C(=O)N[C@@H](CC(C)C)C(N)=O)NC1=O [compound 244] | 19 h | > 24 h | – | 1 to 10 nM | 1 h
CC(=O)N[C@H]1CCSC[C@@H](C(=O)N[C@@H](Cc2ccc(OCCN)cc2)C(=O)N[C@@H](Cc2ccc3ccccc3c2)C(=O)NC2(C(=O)N[C@@H](CCC(=O)O)C(=O)N[C@@H](CC(N)=O)C(=O)NCCC(N)=O)CCOCC2)NC(=O)[C@H](CCC(N)=O)NC(=O)[C@H](Cc2c[nH]c3c(C)cccc23)NC(=O)[C@H]([C@@H](C)O)NC(=O)[C@H](CCC(N)=O)NC1=O [compound 204] | 1 h | – | 5 h | 1 to 10 nM | 19 h
